Values joined by “and” are separate entries in the source; they are usually repeats but may differ in a detail not shown here. Equal values may be shown once.
Tests used:
[1] = tested on: isolated embryos; experiment: Potting and transplant rate, co-treatment with benoxacor or dichlormid during colchicine treatment; format: in vivo, maize
From the text: As used herein, the term “potted rate” or “potting rate” refers to the percent of germinated embryos successfully transferred to soil from total treated haploid embryos. The “potted rate” is used as an indication of plant health in monitoring the success of recovery and growth after treatment of haploids. As used herein, the term “transplant rate” refers to the survival of healthy plants after embryos were germinated and transferred to soil.
Benoxacor was applied to isolated embryos of 2 genoytypes, with 2 replicates at levels of 0, 20, 50, 100 or 200 mg/L during colchicine treatment in the doubling media. The co-treatments were incubated for durations of 24 or 48 hours. […] None of the 48-hour co-treatments performed better than the equivalent co-treatment at 24 hours (see Table 18).
Dichlormid was applied to isolated embryos from 2 genotypes, with 2 replicates at levels of 0, 20, 50, 100, 200 and 300 mg/L during colchicine treatment in the doubling media. The co-treatments were incubated for durations of 24 or 48 hours. […] The highest percent transplanted rates were 92% and 88% for co-treatments 100 mg/L and 50 mg/L both at 24 hours, respectively. None of the 48-hour co-treatments performed better than the equivalent co-treatment at 24 hours (see Table 19).

[2] = tested on: corn embryos; experiment: Uptake of metcamifen and metabolism of colchicine in corn embryos (LCMS); format: in vitro ADME; settings: 500 ppm colchicine, corn embryos
Experimental: An experiment was completed to evaluate the uptake of metcamifen into corn embryos, whether colchicine is metabolized in the embryos, and if metcamifen increased the rate of colchicine metabolism. Corn embryos were co-treated with 500 ppm colchicine in the presence of 200 ppm, 1000 ppm or no metcamifen (control) for 24 or 48 hours and frozen. One biological replicate was represented by five embryos, and three biological replicates were used per co-treatment.
Prior to extraction, embryos were washed for 20 seconds in 80:20 (v/v) acetonitrile:H2O to remove any colchicine and metcamifen on the surface. Each replicate was extracted in 0.5 ml methanol using a fast prep maceration method. Then, samples were diluted 1 in 10 prior to analysis by Liquid Chromatography Mass Spectrometry (LCMS). Samples were analyzed alongside matrix matched standards of colchicine and metcamifen. Metabolite investigations were performed to identify any metabolites.

CC1COc2ccccc2N1C(=O)C(Cl)Cl (stereo not shown) [Benoxacor, benoxacor]
Potting Rate Mean ([1]; benoxacor 20 mg/L, 24 hours): 79% | Potting Rate Mean ([1]; benoxacor 50 mg/L, 24 hours): 90% | Potting Rate Mean ([1]; benoxacor 50 mg/L, 48 hours): 40% | Potting Rate Mean ([1]; benoxacor 100 mg/L, 24 hours): 79% | Potting Rate Mean ([1]; benoxacor 100 mg/L, 48 hours): 60% | Potting Rate Mean ([1]; benoxacor 200 mg/L, 48 hours): 74%

C=CCN(CC=C)C(=O)C(Cl)Cl [Dichlormid, dichlormid]
Potting Rate Mean ([1]; dichlormid 20 mg/L, 24 hours): 89% | Transplant Rate Mean ([1]; dichlormid 20 mg/L, 24 hours): 86% | Potting Rate Mean ([1]; dichlormid 50 mg/L, 24 hours): 90% and 91% | Transplant Rate Mean ([1]; dichlormid 50 mg/L, 24 hours): 88% and 89% | Potting Rate Mean ([1]; dichlormid 100 mg/L, 24 hours): 96% and 97% | Transplant Rate Mean ([1]; dichlormid 100 mg/L, 24 hours): 92% | Potting Rate Mean ([1]; dichlormid 100 mg/L, 48 hours): 70% | Transplant Rate Mean ([1]; dichlormid 100 mg/L, 48 hours): 70% | Potting Rate Mean ([1]; dichlormid 200 mg/L, 48 hours): 86% | Transplant Rate Mean ([1]; dichlormid 200 mg/L, 48 hours): 84% | Potting Rate Mean ([1]; dichlormid 300 mg/L, 48 hours): 95% | Transplant Rate Mean ([1]; dichlormid 300 mg/L, 48 hours): 93%

COc1cc2c(c(OC)c1OC)-c1ccc(OC)c(=O)cc1[C@@H](NC(C)=O)CC2 [colchicine]
amount of colchicine recovered after 48 hours relative to 24 hours [2]: double

Source: patent US20260248087A1, “GENERATING DOUBLED HAPLOID PLANTS” (Syngenta Crop Protection AG, priority 2023, published 2026)
